US7282150B2, “Method of extracting and method of purifying an effective substance” (Ezaki Glico Co., Ltd., priority 2001, dated 2007)
One block for each compound: values may come before it.

How the values were obtained:
[1] = Extraction from aqueous 30% glucose + 10% sodium chloride solution with acetone or isopropanol (absorbance at 280 nm of aqueous phase); type: physicochemical; conditions: single extraction; for starting amount extracted in the acetone phase: 10 ml acetone + 10 ml aqueous solution containing 30% glucose and 10% sodium chloride; for starting amount extracted in the isopropanol phase: 10 ml isopropanol + 10 ml aqueous solution containing 30% glucose and 10% sodium chloride
Method: (§1) 1 g of a mixture of catechins (SUNPHENON®; manufactured by Taiyo Kagaku) was dissolved in 100 ml of an aqueous solution containing 30% glucose and 10% sodium chloride to obtain a sample aqueous solution. The absorbance at 280 nm of the sample aqueous solution was measured. […] Thereafter, the mixture was allowed to stand for 30 minutes. […] The lower phase (aqueous phase) was recovered, and the volume and the absorbance at 280 nm thereof were measured. The amount of the catechins extracted in the upper phase (polar organic solvent phase) was calculated from a reduction in the absorbance at 280 nm of the lower phase and the solution volume of the lower phase.
This additional extraction operation to Example 2a was conducted except for use of 10 ml of isopropanol instead of 10 ml of acetone.
as §1, with “hesperidin glycosides (Toyo Sugar Refining Co., Ltd.) were” for “a mixture of catechins (SUNPHENON®; manufactured by Taiyo Kagaku) was”, “hesperidin glycosides” for “the catechins”, “phase. […] Further, similar operations and measurements were performed twice more by adding 5 ml of acetone to the aqueous phase recovered after the acetone extraction.” for “phase.”
This additional extraction operation to Example 4a was conducted except for use of 10 ml of isopropanol instead of 10 ml of acetone.
as §1, with “salicin” for “a mixture of catechins (SUNPHENON®; manufactured by Taiyo Kagaku)”, “salicin” for “the catechins”
This additional extraction operation to Example 6a was conducted except for use of 10 ml of isopropanol instead of 10 ml of acetone.
as §1, with “caffeic acid” for “a mixture of catechins (SUNPHENON®; manufactured by Taiyo Kagaku)”, “caffeic acid” for “the catechins”
This additional extraction operation to Example 8a was conducted except for use of 10 ml of isopropanol instead of 10 ml of acetone.
as §1, with “0.1 g” for “1 g”, “of salicyl alcohol” for “of a mixture of catechins (SUNPHENON®; manufactured by Taiyo Kagaku)”, “of salicyl alcohol” for “of the catechins”
This additional extraction operation to Example 10a was conducted except for use of 10 ml of isopropanol instead of 10 ml of acetone.

[2] = Extraction from aqueous 30% glucose solution with tetrahydrofuran or acetonitrile (absorbance at 280 nm of aqueous phase); type: physicochemical; conditions: single extraction; for starting amount extracted in the tetrahydrofuran phase: 10 ml THF + 10 ml aqueous solution containing 30% glucose; for starting amount extracted in the acetonitrile phase: 10 ml acetonitrile + 10 ml aqueous solution containing 30% glucose
Method: as §1, with “Kagaku Co., Ltd.)” for “Kagaku)”, “glucose” for “glucose and 10% sodium chloride”
This additional extraction operation to Example 1a was conducted except for use of 10 ml of acetonitrile instead of 10 ml of tetrahydrofuran.
as §1, with “hesperidin glycosides (manufactured” for “a mixture of catechins (SUNPHENON®; manufactured”, “Toyo Sugar Refining Co., Ltd.) were” for “Taiyo Kagaku) was”, “glucose” for “glucose and 10% sodium chloride”, “hesperidin glycosides” for “the catechins”, “phase. […] Further, similar operations and measurements were performed twice more by adding 5 ml of tetrahydrofuran to the aqueous phase recovered after the tetrahydrofuran extraction.” for “phase.”
This additional extraction operation to Example 3a was conducted except for use of 10 ml of acetonitrile instead of 10 ml of tetrahydrofuran.
as §1, with “salicin” for “a mixture of catechins (SUNPHENON®; manufactured by Taiyo Kagaku)”, “glucose” for “glucose and 10% sodium chloride”, “salicin” for “the catechins”
This additional extraction operation to Example 5a was conducted except for use of 10 ml of acetonitrile instead of 10 ml of tetrahydrofuran.
as §1, with “caffeic acid” for “a mixture of catechins (SUNPHENON®; manufactured by Taiyo Kagaku)”, “glucose” for “glucose and 10% sodium chloride”, “caffeic acid” for “the catechins”
This additional extraction operation to Example 7a was conducted except for use of 10 ml of acetonitrile instead of 10 ml of tetrahydrofuran.
as §1, with “salicyl alcohol” for “a mixture of catechins (SUNPHENON®; manufactured by Taiyo Kagaku)”, “glucose” for “glucose and 10% sodium chloride”, “salicyl alcohol” for “the catechins”
This additional extraction operation to Example 9a was conducted except for use of 10 ml of acetonitrile instead of 10 ml of tetrahydrofuran.

[3] = THF extraction of glucoamylase (XL-4) treated glycosylation reaction solution; type: physicochemical; conditions: 1 ml + 1 ml THF
Method: Thereafter, the mixture was incubated at 45° C. for 3 or 4 hours. After the incubation, the contents of glucose and maltose in the solution were confirmed by a HPLC analysis method. […] Glucose and maltose in the eluate were detected by a RI detector. […] After shaking, the mixture was allowed to stand for 1 hour. […] The aqueous phase was recovered. […] The amounts of glucose and maltose were measured by an HPLC analysis method using the aqueous phase. […] Glucose and maltose in the eluate were detected by a RI detector. […] Based on the obtained results and the above-described glucose concentration, maltose concentration and HQG concentration before extraction with THF, the extraction rate to the THF phase was calculated.

[4] = THF extraction of unconcentrated or concentrated glucoamylase-treated glycosylation reaction solution; type: physicochemical; conditions: for Extraction rate (%), THF phase total: three THF extractions, 30° C.
Method: Thereafter, glucoamylase treatment was performed at 45° C. for 4 hours, thereby obtaining a reaction solution. […] Extraction was conducted under a condition of 30° C. The mixture was allowed to stand for 1 hour. The mixture was separated into two phases. The upper THF phase was recovered. […] The obtained THF phases were combined together. Note that although an intermediate layer was generated in the concentrate during the phase separation, the intermediate layer was included in the aqueous phase.

[5] = Influence of temperature on extraction to a tetrahydrofuran phase; type: physicochemical; conditions: aqueous phase made up to 5 ml
Method: Thereafter, the mixture was incubated at 45° C. for 4 hours to obtain a post-glucoamylase treatment reaction solution. […] Thereafter, the mixture was centrifuged at 3000 rpm for 5 minutes. […] The aqueous phase was recovered.

[6] = cited from earlier work
[7] = Acetone extraction of hesperidin from orange juice concentrate with sodium chloride (HPLC); type: physicochemical; conditions: single extraction, orange juice five-fold concentrate + equal volume 15% sodium chloride solution
Method: 10 ml of 15% sodium chloride solution was added to 10 ml of California orange juice concentrate (five-fold concentrate), and stirred to homogeneity, thereby obtaining an aqueous solution. The amount of hesperidin in the California orange juice concentrate used was measured by HPLC using a column ODS, where the mobile phase was a mixture of acetonitrile and water at 20:80, the flow rate was 0.5 ml/min, and the column temperature was 40° C. The absorbance of the eluate was detected at 280 nm. A specific method of detecting the amount of hesperidin is described in Japanese Laid-Open Publication No. 8-80177. […] Thereafter, the mixture was allowed to stand for 30 minutes. […] The upper phase (polar organic solvent phase) was recovered, and the volume thereof was measured. The amount of hesperidin was measured by HPLC as described above. As a result, by a single extraction operation, 75% of hesperidin was extracted in the acetone phase.

[8] = unconcentrated amylase treatment reaction solution

Structure (SMILES): Oc1ccc(O)cc1 [HQ, hydroquinone]
concentration of the aqueous phase after THF extraction ([5]; 3° C.): 0.9%
concentration of the aqueous phase after THF extraction ([5]; 10° C.): 0.7%
concentration of the aqueous phase after THF extraction ([5]; 20° C.): 1.0%
concentration of the aqueous phase after THF extraction ([5]; 22° C.): 1.0%
concentration of the aqueous phase after THF extraction ([5]; 30° C.): 1.0%
concentration of the aqueous phase after THF extraction ([5]; 45° C.): 1.2%

Structure (SMILES): C[C@@H]1O[C@@H](OC[C@H]2O[C@@H](Oc3c(-c4ccc(O)c(O)c4)oc4cc(O)cc(O)c4c3=O)[C@H](O)[C@@H](O)[C@@H]2O)[C@H](O)[C@H](O)[C@H]1O [rutin]
solubility in acetone [6]: insoluble in acetone
solubility in water [6]: poorly soluble in water

Structure (SMILES): C[C@@H]1O[C@@H](O[C@H]2[C@H](Oc3cc(O)c4c(c3)O[C@H](c3ccc(O)cc3)CC4=O)O[C@H](CO)[C@@H](O)[C@@H]2O)[C@H](O)[C@H](O)[C@H]1O [naringin]
solubility in water [6]: poorly soluble in water

Structure (SMILES): COc1ccc([C@@H]2CC(=O)c3c(O)cc(O[C@@H]4O[C@H](CO[C@@H]5O[C@@H](C)[C@H](O)[C@@H](O)[C@H]5O)[C@@H](O)[C@H](O)[C@H]4O)cc3O2)cc1O [hesperidin]
hesperidin extracted in the acetone phase [7]: 75%
solubility in acetone [6]: insoluble in acetone
solubility in water [6]: poorly soluble in water

Structure (SMILES): O=C(O)/C=C/c1ccc(O)c(O)c1 [caffeic acid]
starting amount extracted in the acetone phase [1]: 78.2%
starting amount extracted in the isopropanol phase [1]: 87.2%
starting amount extracted in the tetrahydrofuran phase [2]: 88.6%
starting amount extracted in the acetonitrile phase [2]: 76.2%

Structure (SMILES): COc1ccc([C@@H]2CC(=O)c3c(O)cc(O[C@@H]4O[C@H](CO)[C@@H](O)[C@H](O)[C@H]4O[C@@H]4O[C@@H](C)[C@H](O)[C@@H](O)[C@H]4O)cc3O2)cc1O [neohesperidin]
solubility in water [6]: poorly soluble in water

Second part, the compound after the results:

starting amount extracted in the acetone phase [1]: 58.0%
starting amount extracted in the isopropanol phase [1]: 97.0%
starting amount extracted in the tetrahydrofuran phase [2]: 96.5%
starting amount extracted in the acetonitrile phase [2]: 98.1%
Structure (SMILES): OCc1ccccc1O[C@@H]1O[C@H](CO)[C@@H](O)[C@H](O)[C@H]1O [salicin]

Extraction rate to THF (%) ([3]; (XL-4) 1-fold glucoamylase treatment solution): 38.6%
Extraction rate to THF (%) ([3]; (XL-4) 1.5-fold glucoamylase treatment solution): 33.0%
Extraction rate to THF (%) ([3]; (XL-4) 2-fold glucoamylase treatment solution): 36.4%
Corrected concentration (equivalent in 5 ml) %, THF phase total ([4]; 70% concentrate): 0%
Extraction rate (%), THF phase total ([4]; 70% concentrate): 0%
Corrected concentration (equivalent in 5 ml) %, THF phase total ([4]; 80% concentrate): 0%
Extraction rate (%), THF phase total ([4]; 80% concentrate): 0%
Corrected concentration (equivalent in 5 ml) %, THF phase total [4, 8]: 0.1%
Extraction rate (%), THF phase total [4, 8]: 3.2%
Structure (SMILES): OC[C@H]1O[C@H](O[C@H]2[C@H](O)[C@@H](O)C(O)O[C@@H]2CO)[C@H](O)[C@@H](O)[C@@H]1O (mixture of isomers) [Maltose, maltose]

starting amount extracted in the acetone phase [1]: 87.7%
starting amount extracted in the isopropanol phase [1]: 98.7%
starting amount extracted in the tetrahydrofuran phase [2]: 98.7%
starting amount extracted in the acetonitrile phase [2]: 98.2%
Structure (SMILES): OCc1ccccc1O [salicyl alcohol]
